Data: ChEMBL document CHEMBL4665814, “Structurally Diverse Labdane Diterpenoids from Leonurus japonicus and Their Anti-inflammatory Properties in LPS-Induced RAW264.7 Cells” (J Nat Prod, 2020)
Active and inactive are the calls of the source. The rule behind the calls is not given here.

Key:
[1] = tested on: RAW264.7; test: Anti-inflammatory activity in mouse RAW264.7 cells assessed as inhibition of LPS-induced NO production preincubated for 2 hrs followed by LPS addition and measured after 18 hrs by Griess reagent-based assay; assay type: functional, cell-based
[2] = tested on: RAW264.7; test: Anti-inflammatory activity in mouse RAW264.7 cells assessed as inhibition of LPS-induced IL-1beta level after 24 hrs by ELISA; assay type: functional, cell-based
[3] = tested on: RAW264.7; test: Cytotoxicity against mouse RAW264.7 cells assessed as reduction in cell viability at 3.1 to 25 uM after 48 hrs by MTT assay; assay type: cell-based; conditions: raw264.7, 48 h, dose 3.1-25 µM
[4] = tested on: RAW264.7; test: Anti-inflammatory activity in mouse RAW264.7 cells assessed as inhibition of LPS-induced IL-6 level after 24 hrs by ELISA; assay type: functional, cell-based
[5] = tested on: RAW264.7; test: Anti-inflammatory activity in mouse RAW264.7 cells assessed as inhibition of LPS-induced TNF-alpha level after 24 hrs by ELISA; assay type: functional, cell-based
[6] = biological target: T1, Inhibitor of nuclear factor kappa-B kinase subunit alpha (Mus musculus) (UniProt Q60680); test: Inhibition of IKKalpha in mouse RAW264.7 cells assessed as inhibition of LPS-induced IKK-alpha phosphorylation level after 16 hrs by Western blot analysis; assay type: cell-based
T1 sequence (whole entry): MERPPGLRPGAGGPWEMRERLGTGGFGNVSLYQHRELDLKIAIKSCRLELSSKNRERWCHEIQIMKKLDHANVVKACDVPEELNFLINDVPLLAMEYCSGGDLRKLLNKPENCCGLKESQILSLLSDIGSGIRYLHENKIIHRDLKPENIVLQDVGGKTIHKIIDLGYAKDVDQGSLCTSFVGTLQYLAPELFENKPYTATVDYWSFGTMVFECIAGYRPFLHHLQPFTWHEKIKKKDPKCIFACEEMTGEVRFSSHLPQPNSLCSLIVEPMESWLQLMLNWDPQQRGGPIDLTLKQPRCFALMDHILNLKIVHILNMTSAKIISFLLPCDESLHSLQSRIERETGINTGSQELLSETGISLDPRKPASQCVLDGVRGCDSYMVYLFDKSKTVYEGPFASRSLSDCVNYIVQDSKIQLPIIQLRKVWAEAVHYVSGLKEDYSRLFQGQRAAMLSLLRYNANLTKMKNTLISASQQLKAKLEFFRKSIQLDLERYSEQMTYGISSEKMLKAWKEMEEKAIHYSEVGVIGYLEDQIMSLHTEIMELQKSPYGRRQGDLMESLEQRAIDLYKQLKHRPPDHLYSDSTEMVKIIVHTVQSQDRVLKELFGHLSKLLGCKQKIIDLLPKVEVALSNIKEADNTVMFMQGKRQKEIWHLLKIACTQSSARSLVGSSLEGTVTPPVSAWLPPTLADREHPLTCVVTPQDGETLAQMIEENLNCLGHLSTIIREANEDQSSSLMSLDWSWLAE

[7] = biological target: T2, Inhibitor of nuclear factor kappa-B kinase subunit beta (Mus musculus) (UniProt O88351); test: Inhibition of IKKbeta in mouse RAW264.7 cells assessed as inhibition of LPS-induced IKK-beta phosphorylation level after 16 hrs by Western blot analysis; assay type: cell-based
T2 sequence (whole entry): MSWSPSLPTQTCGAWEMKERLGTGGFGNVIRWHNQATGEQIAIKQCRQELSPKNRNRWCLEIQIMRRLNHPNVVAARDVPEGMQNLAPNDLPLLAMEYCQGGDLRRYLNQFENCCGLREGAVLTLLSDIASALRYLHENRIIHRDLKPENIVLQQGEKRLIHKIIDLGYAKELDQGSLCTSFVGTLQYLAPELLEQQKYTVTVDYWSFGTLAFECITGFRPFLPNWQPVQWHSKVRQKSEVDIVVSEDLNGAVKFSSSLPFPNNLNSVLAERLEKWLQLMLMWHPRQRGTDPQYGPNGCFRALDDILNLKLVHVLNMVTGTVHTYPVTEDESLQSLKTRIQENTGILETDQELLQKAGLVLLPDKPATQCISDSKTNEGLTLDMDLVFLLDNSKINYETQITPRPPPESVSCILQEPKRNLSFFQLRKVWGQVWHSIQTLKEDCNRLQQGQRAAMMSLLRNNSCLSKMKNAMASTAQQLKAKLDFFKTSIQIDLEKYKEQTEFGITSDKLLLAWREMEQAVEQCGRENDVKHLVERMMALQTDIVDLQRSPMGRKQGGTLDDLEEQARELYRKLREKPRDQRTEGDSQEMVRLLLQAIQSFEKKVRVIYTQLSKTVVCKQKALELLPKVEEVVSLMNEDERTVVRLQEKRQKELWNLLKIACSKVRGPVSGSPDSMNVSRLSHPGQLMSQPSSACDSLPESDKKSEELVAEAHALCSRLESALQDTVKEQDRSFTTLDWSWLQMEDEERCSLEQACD

[8] = tested on: RAW264.7; test: Anti-inflammatory activity in mouse RAW264.7 cells assessed as inhibition of LPS-induced iNOS level after 16 hrs by Western blot analysis; assay type: functional, cell-based
[9] = tested on: RAW264.7; test: Anti-inflammatory activity in mouse RAW264.7 cells assessed as inhibition of LPS-induced COX-2 level after 16 hrs by Western blot analysis; assay type: functional, cell-based

| IC50 [1] | SMILES | other results |
| --- | --- | --- |
| > 50 µM | C[C@@H]1[C@@H](O)C(=O)[C@H]2C(C)(C)CCC[C@]2(C)[C@@]1(O)CCc1ccoc1 |  |
| > 50 µM | CCC(O)C(=O)[C@H]1C(C)(C)CCC[C@]1(C)C(=O)CCC1=CCOC1=O (stereo partly specified) |  |
| 33.4 µM | CC1=CC[C@H]2[C@@](C)(CO)CCC[C@]2(C)[C@H]1CC/C(C)=C/CO |  |
| > 50 µM | COC(OC)[C@@]1(C)CCC[C@@]2(C)[C@H]1CC=C(C)[C@@H]2CC/C(C)=C/CO |  |
| 33.4 µM | C=C1CC[C@H]2C(C)(C)CCC[C@]2(C)[C@H]1CC/C(C)=C/CO |  |
| 29 µM | CC1=CC[C@@H]2[C@](C)(CCC[C@]2(C)C=O)[C@H]1CC/C(C)=C/CO |  |
| 43.9 µM | CC1=C(CCC2=CCOC2=O)[C@@]2(C)CCCC(C)(C)[C@@H]2CC1=O |  |
| > 50 µM | CCC(=O)C1O[C@](O)(CCc2ccoc2)[C@@]2(C)CCCC(C)(C)[C@H]12 (single isomer, unassigned) |  |
| 20 µM | CC1=CC[C@H]2C(C)(C)CCC[C@]2(C)[C@H]1CC/C(C)=C/CO |  |
| > 50 µM | CCOC1CC(O)(CCC2=C(C)C(=O)[C@@H](O)[C@H]3C(C)(C)CCC[C@]23C)CO1 (stereo partly specified) |  |
| 41.1 µM | CC1=CC[C@@H]2[C@](C)(CCC[C@]2(C)C(=O)O)[C@H]1CC/C(C)=C/CO |  |
| 26.4 µM | COC1CC(O)(CCC2=C(C)C(=O)[C@@H](O)[C@H]3C(C)(C)CCC[C@]23C)CO1 (stereo partly specified) |  |

More lines, now with the values behind:

| SMILES | IC50 [1] | other results |
| --- | --- | --- |
| CCC(=O)[C@H]1O[C@@](CCc2ccoc2)(OC)[C@@]2(C)CCCC(C)(C)[C@H]12 | > 50 µM |  |
| CC1=C(CCc2ccoc2)[C@@]2(C)CC[C@@H](O)C(C)(C)[C@@H]2[C@H](O)C1=O | > 50 µM |  |
| CCC(=O)[C@H]1O[C@@](CCC2=CCOC2=O)(OC)[C@@]2(C)CCCC(C)(C)[C@H]12 | 21.9 µM |  |
| CC1=C(CCc2ccoc2)[C@@]2(C)CCC(=O)C(C)(C)C2=C(O)C1=O | > 50 µM |  |
| C[C@H]1C(=O)[C@@H](O)[C@H]2C(C)(C)C(=O)CC[C@]2(C)[C@@]1(O)CCc1ccoc1 | > 50 µM |  |
| CC1=C(CCc2ccoc2)[C@@]2(C)CCC(=O)C(C)(C)[C@@H]2[C@@H](O)C1=O | > 50 µM |  |
| CCOC1CC(O)(CCC2=C(C)C(=O)C(O)=C3C(C)(C)C(=O)CC[C@]23C)CO1 (stereo partly specified) | 22.9 µM |  |
| CC(=O)O[C@@H]1CC[C@]2(C)C(CCc3ccoc3)=C(C)C(=O)[C@@H](O)[C@H]2C1(C)C | 22.5 µM |  |
| CC(=O)O[C@@H]1CC[C@]2(C)C(CCC3=CCOC3=O)=C(C)C(=O)[C@@H](O)[C@H]2C1(C)C | > 50 µM |  |
| CCOC1CC(O)(CCC2=C(C)C(=O)[C@@H](O)[C@H]3C(C)(C)[C@H](OC(C)=O)CC[C@]23C)CO1 (stereo partly specified) | 30.4 µM |  |
| C[C@@H]1C(=O)C(O)=C2C(C)(C)C(=O)CC[C@]2(C)[C@@]1(O)CCc1ccoc1 | > 50 µM |  |
| CO[C@@H]1C=C(CCC2=C(C)C(=O)C(O)=C3C(C)(C)C(=O)CC[C@]23C)C(=O)O1 | > 50 µM |  |
| COC1C=C(CCC2=C(C)C(=O)[C@@H](O)[C@H]3C(C)(C)[C@H](O)CC[C@]23C)C(=O)O1 (stereo partly specified) | 27.5 µM |  |
| CC1=C(CCc2ccoc2)[C@@]2(C)CCCC(C)(C)[C@@H]2[C@H](O)C1=O | > 50 µM |  |
| CO[C@H]1C=C(CCC2=C(C)C(=O)C(O)=C3C(C)(C)C(=O)CC[C@]23C)C(=O)O1 | > 50 µM |  |
| CCC(O)C(=O)[C@H]1C(C)(C)C(=O)CC[C@]1(C)C(=O)CCc1ccoc1 (stereo partly specified) | > 50 µM |  |
| CCC(=O)[C@H]1O/C(=C\Cc2ccoc2)[C@@]2(C)CCCC(C)(C)[C@H]12 | > 50 µM |  |
| C[C@@H]1C[C@H]2[C@@H]3CCC4=CC(=O)C=C[C@]4(C)[C@@]3(F)[C@@H](O)C[C@]2(C)[C@@]1(O)C(=O)CO [DEXAMETHASONE] | 24.3 µM |  |
| CC1=C(CCc2ccoc2)[C@@]2(C)CCCC(C)(C)C2=C(O)C1=O | 46.1 µM |  |
| CCC(=O)[C@H]1O[C@@](CCC2=CC(OC)OC2=O)(OC)[C@@]2(C)CC[C@@H](OC(C)=O)C(C)(C)[C@H]12 (stereo partly specified) | > 50 µM |  |
| CC(=O)O[C@@H]1CC[C@@]2(C)[C@@H](C(=O)[C@H](O)[C@@H](C)[C@]2(O)CCc2ccoc2)C1(C)C | > 50 µM |  |
| COC1C=C(CCC2=C(C)C(=O)C(O)=C3C(C)(C)[C@H](OC(C)=O)CC[C@]23C)C(=O)O1 (stereo partly specified) | 40.8 µM |  |
| CCOC1CC(O)(CCC2=C(C)C(=O)C(O)=C3C(C)(C)[C@H](OC(C)=O)CC[C@]23C)CO1 (stereo partly specified) | 21.7 µM |  |
| CCC(=O)[C@H]1O[C@@](CCC2=CC(OC)OC2=O)(OC)[C@@]2(C)CCCC(C)(C)[C@H]12 (stereo partly specified) | 3.9 µM | inhibition [2]: Dose-dependent effect; Activity [3]: Non-Toxic; inhibition [4]: Dose-dependent effect; inhibition [5]: Dose-dependent effect; inhibition [6]: Active; inhibition [7]: Active; inhibition [8]: Active; inhibition [9]: Active |
| COC1C=C(CC[C@@]2(O)[C@H](C)C(=O)[C@@H](O)[C@H]3C(C)(C)CCC[C@@]32C)C(=O)O1 (stereo partly specified) | 24.7 µM |  |
| CCC(=O)[C@H]1O[C@](O)(CCC2=CC(OC)OC2=O)[C@@]2(C)CCCC(C)(C)[C@H]12 (stereo partly specified) | 15.7 µM |  |
